Test results: ChEMBL document CHEMBL3244146, “Pyranenamines: a new series of antiallergic compounds” (1979)

Test system: Rattus norvegicus
Assay: Antiallergic activity in rat assessed as inhibition of egg albumin-induced passive cutaneous anaphylaxis at 0.5 mg/kg, iv treated for 30 secs followed by egg albumin-challenge measured after 30 mins relative to control
Assay type: functional
Settings: 0.5 h

CC(=O)C1=C(O)/C(=C(\C)Nc2ccc(Br)cc2)C(=O)OC1=O
inhibition in vivo at 0.5 mg/kg: 0%

CC(=O)C1=C(O)/C(=C(\C)Nc2cccc(S(N)(=O)=O)c2)C(=O)OC1=O
inhibition in vivo at 0.5 mg/kg: 45%

CC(=O)C1=C(O)/C(=C(\C)Nc2ccc(S(N)(=O)=O)cc2)C(=O)OC1=O
inhibition in vivo at 0.5 mg/kg: 12%

CC(=O)Oc1ccc(N/C(C)=C2\C(=O)OC(=O)C(C(C)=O)=C2O)cc1
inhibition in vivo at 0.5 mg/kg: 41%

CCC(=O)Oc1ccc(N/C(C)=C2\C(=O)OC(=O)C(C(C)=O)=C2O)cc1
inhibition in vivo at 0.5 mg/kg: 16%

CCCCCCC(=O)Oc1ccc(N/C(C)=C2\C(=O)OC(=O)C(C(C)=O)=C2O)cc1
inhibition in vivo at 0.5 mg/kg: 21%

CC(=O)C1=C(O)/C(=C(\C)Nc2ccc(OC(=O)C(C)(C)C)cc2)C(=O)OC1=O
inhibition in vivo at 0.5 mg/kg: 3%

CC(=O)C1=C(O)/C(=C(\C)Nc2ccc(OC(N)=O)cc2)C(=O)OC1=O
inhibition in vivo at 0.5 mg/kg: 19%

CC(=O)C1=C(O)/C(=C(\C)Nc2ccc(OC(=O)NC3C=CC=CC=C3)cc2)C(=O)OC1=O
inhibition in vivo at 0.5 mg/kg: 22%

CC(=O)C1=C(O)/C(=C(\C)Nc2cccc(OCC(=O)O)c2)C(=O)OC1=O
inhibition in vivo at 0.5 mg/kg: 6%

CNc1cccc(N/C(C)=C2\C(=O)OC(=O)C(C(C)=O)=C2O)c1
inhibition in vivo at 0.5 mg/kg: -8%

CC(=O)C1=C(O)/C(=C(\C)Nc2cccc(NC(=N)NS(=O)(=O)c3ccc(C)cc3)c2)C(=O)OC1=O
inhibition in vivo at 0.5 mg/kg: 2%

CC(=O)C1=C(O)/C(=C(\C)Nc2cccc(NC=O)c2)C(=O)OC1=O
inhibition in vivo at 0.5 mg/kg: 22%

CC(=O)Nc1ccccc1N/C(C)=C1\C(=O)OC(=O)C(C(C)=O)=C1O
inhibition in vivo at 0.5 mg/kg: -12%

CCCC(=O)Nc1cccc(N/C(C)=C2\C(=O)OC(=O)C(C(C)=O)=C2O)c1
inhibition in vivo at 0.5 mg/kg: 58%

CC(=O)C1=C(O)/C(=C(\C)Nc2cccc(N3C(=O)CCC3=O)c2)C(=O)OC1=O
inhibition in vivo at 0.5 mg/kg: 22%

CC(=O)C1=C(O)/C(=C(\C)Nc2cccc(NS(C)(=O)=O)c2)C(=O)OC1=O
inhibition in vivo at 0.5 mg/kg: 28%

CC(=O)C1=C(O)/C(=C(\C)Nc2ccc(NS(C)(=O)=O)cc2)C(=O)OC1=O
inhibition in vivo at 0.5 mg/kg: 20%

CC(=O)C1=C(O)/C(=C(\C)Nc2ccc(NS(=O)(=O)c3ccccc3)cc2)C(=O)OC1=O
inhibition in vivo at 0.5 mg/kg: 4%

CC(=O)NCc1cccc(N/C(C)=C2\C(=O)OC(=O)C(C(C)=O)=C2O)c1
inhibition in vivo at 0.5 mg/kg: 4%

CC(=O)C1=C(O)/C(=C(\C)Nc2cccc(C(N)=O)c2)C(=O)OC1=O
inhibition in vivo at 0.5 mg/kg: -16%

CNC(=O)c1cccc(N/C(C)=C2\C(=O)OC(=O)C(C(C)=O)=C2O)c1
inhibition in vivo at 0.5 mg/kg: 24%

CCNC(=O)c1cccc(N/C(C)=C2\C(=O)OC(=O)C(C(C)=O)=C2O)c1
inhibition in vivo at 0.5 mg/kg: -4%

CC(=O)C1=C(O)/C(=C(\C)Nc2cccc(C(=O)N(C)C)c2)C(=O)OC1=O
inhibition in vivo at 0.5 mg/kg: 10%

CC(=O)C1=C(O)/C(=C(\C)Nc2cccc(C(=O)NC3C(=O)NC(=O)NC3=O)c2)C(=O)OC1=O
inhibition in vivo at 0.5 mg/kg: 39%

CNc1cc(N/C(C)=C2\C(=O)OC(=O)C(C(C)=O)=C2O)ccc1O
inhibition in vivo at 0.5 mg/kg: -6%

CC(=O)NCc1cc(N/C(C)=C2\C(=O)OC(=O)C(C(C)=O)=C2O)ccc1O
inhibition in vivo at 0.5 mg/kg: 1%

CC(=O)C1=C(O)/C(=C(\C)Nc2ccc3oc(C)nc3c2)C(=O)OC1=O
inhibition in vivo at 0.5 mg/kg: 13%

COc1ccc(N/C(C)=C2\C(=O)OC(=O)C(C(C)=O)=C2O)cc1NC(C)=O
inhibition in vivo at 0.5 mg/kg: 27%

CNC(=O)c1cc(N/C(C)=C2\C(=O)OC(=O)C(C(C)=O)=C2O)ccc1O
inhibition in vivo at 0.5 mg/kg: 38%

CC(=O)C1=C(O)/C(=C(\C)Nc2ccc(O)c(NS(C)(=O)=O)c2)C(=O)OC1=O
inhibition in vivo at 0.5 mg/kg: 38%

CC(=O)C1=C(O)/C(=C(\C)Nc2cc(C(F)(F)F)cc(C(F)(F)F)c2)C(=O)OC1=O
inhibition in vivo at 0.5 mg/kg: 14%

CC(=O)C1=C(O)/C(=C(\C)Nc2cc(NS(=O)(=O)c3ccccc3)cc(NS(=O)(=O)c3ccccc3)c2)C(=O)OC1=O
inhibition in vivo at 0.5 mg/kg: -9%

CC(=O)C1=C(O)/C(=C(\C)Nc2c(O)cccc2O)C(=O)OC1=O
inhibition in vivo at 0.5 mg/kg: -22%

CC(=O)C1=C(O)/C(=C(\C)N2CCOCC2)C(=O)OC1=O
inhibition in vivo at 0.5 mg/kg: 2%
